Results: patent publication US7049305B2, “Bile-acid conjugates providing for sustained systemic concentration of drugs” (XenoPort, Inc., priority 2000, dated 2006)

Target: T1, rPEPT1 (Rattus norvegicus, UniProt P51574)
T1 construct: expressed in transfected cells; host or cells: CHO cells
T1 sequence (P51574 1-710): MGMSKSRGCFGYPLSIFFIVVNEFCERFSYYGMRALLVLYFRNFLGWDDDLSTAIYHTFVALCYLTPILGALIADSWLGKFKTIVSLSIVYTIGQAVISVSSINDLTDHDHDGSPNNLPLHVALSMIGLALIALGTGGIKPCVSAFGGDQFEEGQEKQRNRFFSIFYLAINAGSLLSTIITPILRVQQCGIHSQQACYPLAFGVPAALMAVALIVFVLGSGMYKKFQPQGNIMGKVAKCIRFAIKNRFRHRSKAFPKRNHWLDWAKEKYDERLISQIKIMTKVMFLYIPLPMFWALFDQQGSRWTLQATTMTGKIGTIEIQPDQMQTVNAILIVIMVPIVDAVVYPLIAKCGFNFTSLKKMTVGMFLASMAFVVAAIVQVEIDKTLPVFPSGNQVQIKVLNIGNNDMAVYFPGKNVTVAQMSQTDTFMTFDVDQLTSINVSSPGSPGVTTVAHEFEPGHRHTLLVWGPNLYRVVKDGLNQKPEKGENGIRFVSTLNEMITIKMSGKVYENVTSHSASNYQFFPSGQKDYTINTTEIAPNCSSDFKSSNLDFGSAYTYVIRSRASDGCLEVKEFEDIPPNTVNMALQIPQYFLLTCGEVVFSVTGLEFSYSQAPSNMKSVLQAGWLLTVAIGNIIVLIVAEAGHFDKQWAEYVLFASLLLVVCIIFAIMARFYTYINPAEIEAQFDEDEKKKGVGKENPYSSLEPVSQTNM
Experiment: Transport-induced currents in Xenopus oocytes expressing rPEPT1
Format: cell-based
Details: response relative to Gly-Sar, test compound 1 mM
Protocol: Rat and human PEPT1 and PEPT2 expressing CHO cell lines were prepared as described in PCT Application WO01/20331. Gabapentin-containing dipeptides were evaluated for interaction with the peptide transporters using a radiolabeled substrate uptake assay in a competitive inhibition format, as described in PCT Application WO01/20331. Transport-induced currents were also measured in Xenopus oocytes transfected with rat and human PEPT1 and PEPT2.

NCC(=O)NCC1(CC(=O)O)CCCCC1 [Gly-Gabapentin] was tested, and the “% Max. (Gly-Sar)” value was 76%.
